The values that follow come from article PMC5647113 (Circulation. Arrhythmia and electrophysiology, 2017).

In assay [1] the target is hERG (KV11.1) (Homo sapiens, UniProt Q12809). Description: automated patch clamp. It is filed as cell-based.
In assay [2] the target is hSK3 (KCa2.3) (Homo sapiens, UniProt Q9UGI6). Briefly: automated whole-cell patch clamp. It is filed as cell-based. In general terms: Patch clamp records ionic current or voltage across a cell membrane.
Chain of hSK3 (KCa2.3) (Q9UGI6 whole entry): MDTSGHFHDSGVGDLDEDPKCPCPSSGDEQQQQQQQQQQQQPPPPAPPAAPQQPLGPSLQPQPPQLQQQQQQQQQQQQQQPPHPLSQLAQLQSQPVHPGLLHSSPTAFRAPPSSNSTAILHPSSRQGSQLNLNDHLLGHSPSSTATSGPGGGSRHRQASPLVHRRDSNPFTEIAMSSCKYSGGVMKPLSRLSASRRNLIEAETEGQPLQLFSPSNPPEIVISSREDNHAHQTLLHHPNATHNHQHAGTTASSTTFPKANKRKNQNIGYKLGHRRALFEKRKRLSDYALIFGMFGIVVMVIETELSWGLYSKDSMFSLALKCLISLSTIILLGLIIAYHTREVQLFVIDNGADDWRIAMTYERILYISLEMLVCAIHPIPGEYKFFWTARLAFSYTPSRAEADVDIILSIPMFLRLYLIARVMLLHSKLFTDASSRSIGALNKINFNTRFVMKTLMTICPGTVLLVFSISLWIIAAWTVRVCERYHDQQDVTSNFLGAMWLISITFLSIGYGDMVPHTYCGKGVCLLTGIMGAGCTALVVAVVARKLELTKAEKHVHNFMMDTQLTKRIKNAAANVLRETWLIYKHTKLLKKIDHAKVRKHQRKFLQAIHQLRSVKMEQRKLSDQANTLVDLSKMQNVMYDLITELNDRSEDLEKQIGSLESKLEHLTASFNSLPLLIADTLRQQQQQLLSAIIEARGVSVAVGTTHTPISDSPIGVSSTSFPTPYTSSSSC

Chain of hERG (KV11.1) (Q12809 whole entry): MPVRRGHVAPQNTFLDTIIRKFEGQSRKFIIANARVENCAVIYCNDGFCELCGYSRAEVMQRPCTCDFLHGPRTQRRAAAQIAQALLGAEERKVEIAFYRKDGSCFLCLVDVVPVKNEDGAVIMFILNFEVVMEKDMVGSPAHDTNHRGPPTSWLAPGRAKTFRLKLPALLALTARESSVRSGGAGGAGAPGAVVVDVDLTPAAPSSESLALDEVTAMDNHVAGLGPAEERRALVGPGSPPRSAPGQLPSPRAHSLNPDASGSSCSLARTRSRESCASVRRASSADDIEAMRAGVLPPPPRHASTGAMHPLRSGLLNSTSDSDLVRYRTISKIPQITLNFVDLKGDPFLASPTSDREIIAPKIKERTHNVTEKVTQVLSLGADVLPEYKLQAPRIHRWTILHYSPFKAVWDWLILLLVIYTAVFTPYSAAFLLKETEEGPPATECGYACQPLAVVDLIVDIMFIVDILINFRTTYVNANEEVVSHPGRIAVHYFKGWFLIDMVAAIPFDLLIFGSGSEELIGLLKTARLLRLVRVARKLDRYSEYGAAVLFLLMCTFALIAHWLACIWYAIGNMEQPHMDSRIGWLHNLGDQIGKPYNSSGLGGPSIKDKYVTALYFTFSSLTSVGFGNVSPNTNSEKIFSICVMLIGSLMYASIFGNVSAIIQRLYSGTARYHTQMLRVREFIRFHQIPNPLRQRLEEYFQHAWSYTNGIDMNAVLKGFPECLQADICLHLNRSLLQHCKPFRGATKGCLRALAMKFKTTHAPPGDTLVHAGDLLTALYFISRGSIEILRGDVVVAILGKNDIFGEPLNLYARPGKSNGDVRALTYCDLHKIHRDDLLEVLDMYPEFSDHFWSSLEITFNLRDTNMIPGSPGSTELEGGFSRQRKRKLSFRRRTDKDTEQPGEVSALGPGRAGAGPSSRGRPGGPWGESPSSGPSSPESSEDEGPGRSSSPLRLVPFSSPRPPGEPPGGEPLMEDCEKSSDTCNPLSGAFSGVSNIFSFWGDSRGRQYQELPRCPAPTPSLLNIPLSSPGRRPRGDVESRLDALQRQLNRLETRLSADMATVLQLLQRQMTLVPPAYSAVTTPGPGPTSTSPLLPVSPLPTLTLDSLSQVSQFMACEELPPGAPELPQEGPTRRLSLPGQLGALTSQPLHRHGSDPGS

Usually IC50 stands for the concentration at which inhibition is half-maximal. As for `CC(=O)Nc1cccc2[nH]c(N[C@H](C)c3cccc(C(F)(F)F)c3)nc12` [AP14145, N-(2-{[(1R)-1-[3-(trifluoromethyl)phenyl]ethyl]amino}-1H-1,3-benzodiazol-4-yl)acetamide], the IC50 in assay [1] was found to be 71.8 ± 0.5 µM; in assay [2], 1.3 ± 0.4 µM.
